What was measured:
[1] = Fluorescence emission spectra of prodrug vs. free photosensitizer (TBO); format: physicochemical; details: ethanol, 635 nm excitation
[2] = molecular target: β-lactamase from Enterobacter cloacae (Enterobacter cloacae, UniProt P05364); assay: Enzyme-mediated cleavage of the prodrug (fluorescence emission, photosensitizer release); format: biochemical
Procedure: Enzyme-mediated cleavage of the prodrug The prodrug obtained was further studied for release of photosensitizer in presence of β-lactamase from Enterobacter cloacae. For the fluorescence emission study of the prodrug, the solvent employed was water, and the excitation wavelength 635 nm in the presence of beta-lactamase enzyme (from Enterobacter cloacae). Time-dependent fluorescence emission was also measured for photosensitizer release from the prodrug in the presence of enzyme. […] Thus, the prodrug was synthesized and characterized.

Sequence of β-lactamase from Enterobacter cloacae (P05364 21-381): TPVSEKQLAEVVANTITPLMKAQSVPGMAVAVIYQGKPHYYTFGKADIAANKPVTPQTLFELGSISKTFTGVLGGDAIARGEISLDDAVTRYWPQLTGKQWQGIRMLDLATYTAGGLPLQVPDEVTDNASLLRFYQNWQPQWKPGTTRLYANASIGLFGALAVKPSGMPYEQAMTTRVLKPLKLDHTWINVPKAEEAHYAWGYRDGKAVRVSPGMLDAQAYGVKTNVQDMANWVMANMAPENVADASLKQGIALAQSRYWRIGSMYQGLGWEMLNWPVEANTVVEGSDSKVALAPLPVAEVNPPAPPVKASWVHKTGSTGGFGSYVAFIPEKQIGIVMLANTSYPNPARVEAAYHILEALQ

Substance: Cephalosporanic Acid-Toluidine BlueO Prodrug
- reduction in fluorescence emission maxima (quenching of the photosensitizer upon conjugation with the cephalosporin moiety) [1]: ~8 fold
- enzyme specificity of photosensitizer release ([2]; beta-lactamase enzyme (from Enterobacter cloacae)): lactamase-specific activity
- increase in excited stated properties (fluorescence emission) on incubation with enzyme ([2]; water, 635 nm excitation, within minutes of incubation of prodrug with enzyme): ~5 fold

Source: US20100016208A1, “PHOTOACTIVATABLE ANTIMICROBIAL AGENTS” (priority 2005, published 2010)
